The record followed here is US9505767B2, “Pyrazolo[1,5-A]pyrimidin-7(4H)-onehistone demethylase inhibitors” (Genentech, Inc., priority 2013, dated 2016).

For this test, the target named is T1, KDM5A (Homo sapiens, UniProt P29375).
T1 construct: Full length recombinant Flag tagged KDM5A protein was purified from Sf9 insect cells; Flag; made in house; host or cells: Sf9 insect cells
T1 sequence (P29375 whole entry): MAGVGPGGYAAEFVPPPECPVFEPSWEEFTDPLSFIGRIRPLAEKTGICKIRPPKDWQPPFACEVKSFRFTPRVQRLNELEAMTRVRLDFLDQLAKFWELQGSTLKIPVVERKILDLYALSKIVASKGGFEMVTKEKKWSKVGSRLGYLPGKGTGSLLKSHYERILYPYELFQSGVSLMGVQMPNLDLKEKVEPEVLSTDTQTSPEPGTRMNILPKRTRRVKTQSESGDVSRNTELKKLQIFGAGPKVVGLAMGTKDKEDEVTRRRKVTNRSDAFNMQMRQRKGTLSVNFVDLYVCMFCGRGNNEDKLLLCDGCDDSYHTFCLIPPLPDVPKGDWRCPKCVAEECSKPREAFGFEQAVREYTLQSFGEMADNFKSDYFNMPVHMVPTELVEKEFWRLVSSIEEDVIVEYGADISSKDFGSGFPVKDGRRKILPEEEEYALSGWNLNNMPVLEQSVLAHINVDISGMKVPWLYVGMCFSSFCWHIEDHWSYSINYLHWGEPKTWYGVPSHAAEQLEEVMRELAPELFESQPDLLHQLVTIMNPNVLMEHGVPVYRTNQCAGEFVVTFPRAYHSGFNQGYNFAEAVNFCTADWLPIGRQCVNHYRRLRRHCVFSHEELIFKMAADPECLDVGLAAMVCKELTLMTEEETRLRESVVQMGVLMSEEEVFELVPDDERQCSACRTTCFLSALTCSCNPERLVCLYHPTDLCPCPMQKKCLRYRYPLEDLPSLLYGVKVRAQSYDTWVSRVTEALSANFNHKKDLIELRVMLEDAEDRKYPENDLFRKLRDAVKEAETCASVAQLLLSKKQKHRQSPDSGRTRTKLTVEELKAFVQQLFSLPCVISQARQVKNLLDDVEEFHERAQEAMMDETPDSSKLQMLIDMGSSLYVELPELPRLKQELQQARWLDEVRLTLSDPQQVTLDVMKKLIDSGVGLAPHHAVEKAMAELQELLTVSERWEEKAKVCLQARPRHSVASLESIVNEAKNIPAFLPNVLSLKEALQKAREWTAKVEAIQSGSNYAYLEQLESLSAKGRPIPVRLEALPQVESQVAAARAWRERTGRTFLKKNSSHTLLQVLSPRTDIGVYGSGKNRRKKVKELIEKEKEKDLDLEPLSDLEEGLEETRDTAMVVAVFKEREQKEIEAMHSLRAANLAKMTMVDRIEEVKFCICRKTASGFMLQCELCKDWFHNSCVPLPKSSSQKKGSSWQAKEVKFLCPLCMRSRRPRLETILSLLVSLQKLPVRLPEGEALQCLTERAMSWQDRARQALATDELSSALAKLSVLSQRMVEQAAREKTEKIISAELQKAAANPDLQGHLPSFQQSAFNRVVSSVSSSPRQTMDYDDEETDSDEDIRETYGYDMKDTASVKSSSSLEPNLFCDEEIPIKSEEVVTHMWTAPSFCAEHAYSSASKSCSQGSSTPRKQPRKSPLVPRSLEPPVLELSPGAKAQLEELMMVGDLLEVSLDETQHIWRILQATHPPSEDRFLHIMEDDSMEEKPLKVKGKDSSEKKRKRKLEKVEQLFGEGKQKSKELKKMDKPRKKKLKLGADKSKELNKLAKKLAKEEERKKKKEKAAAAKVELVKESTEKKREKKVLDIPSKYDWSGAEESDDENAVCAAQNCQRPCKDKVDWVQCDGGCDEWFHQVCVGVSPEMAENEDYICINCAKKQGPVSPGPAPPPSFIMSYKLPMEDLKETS
Briefly: KDM5A Demethylase Assay (TR-FRET Assay-B). It is filed as biochemical. To be noted: full length recombinant Flag tagged KDM5A, 2 nM, TrisCl pH 7.4, 3.0 μM α-ketoglutarate, read-out: B KDM5A HTRF (IC50).
Method: Full length recombinant Flag tagged KDM5A protein was purified from Sf9 insect cells. The demethylation reaction buffer contained 50 mM TrisCl pH 7.4, 0.01% Triton X-100, 0.025 mg/mL BSA, 1 mM ascorbate, 2 mM TCEP, 3.0 μM α-ketoglutarate, and 50 μM Fe2(NH4)2(SO4)2. […] After a one hour incubation assays were read on a Perkin-Elmer Envision equipped with a laser source and appropriate filters.
Take `CCc1c(C)[nH]c2c(-c3cnn(-c4ncc(C)cn4)c3)cnn2c1=O` [Example 2, 6-ethyl-5-methyl-3-(1-(5-methylpyrimidin-2-yl)-1H-pyrazol-4-yl)pyrazolo[1,5-a]pyrimidin-7(4H)-one]: the 50% inhibitory concentration (IC50) came to 16.1 nM.

On to `CCc1c(C)[nH]c2c(-c3cnn(-c4ccncn4)c3)cnn2c1=O` [Example 3, 6-ethyl-5-methyl-3-(1-(pyrimidin-4-yl)-1H-pyrazol-4-yl)pyrazolo[1,5-a]pyrimidin-7(4H)-one], for which the IC50 turned out to be 158 nM. As to `CCc1c(C)[nH]c2c(-c3cnn(-c4nccc(N(C)C)n4)c3)cnn2c1=O` [Example 4, 3-(1-(4-(dimethylamino)pyrimidin-2-yl)-1H-pyrazol-4-yl)-6-ethyl-5-methylpyrazolo[1,5-a]pyrimidin-7(4H)-one], the IC50 was 47 nM. Consider `CCc1c(C)[nH]c2c(-c3cnn(-c4ncc(N(C)C)cn4)c3)cnn2c1=O` [Example 5, 3-(1-(5-(dimethylamino)pyrimidin-2-yl)-1H-pyrazol-4-yl)-6-ethyl-5-methylpyrazolo[1,5-a]pyrimidin-7(4H)-one], for which the IC50 was 60.3 nM.

Consider `CCc1c(C)[nH]c2c(-c3cnn(-c4nccc(N5CCCC5)n4)c3)cnn2c1=O` [Example 6, 6-ethyl-5-methyl-3-(1-(4-(pyrrolidin-1-yl)pyrimidin-2-yl)-1H-pyrazol-4-yl)pyrazolo[1,5-a]pyrimidin-7(4H)-one], for which the IC50 turned out to be 52.9 nM. As to `CCc1c(C)[nH]c2c(-c3cnn(-c4nccc(OC)n4)c3)cnn2c1=O` [Example 7, 6-ethyl-3-(1-(4-methoxypyrimidin-2-yl)-1H-pyrazol-4-yl)-5-methylpyrazolo[1,5-a]pyrimidin-7(4H)-one], the IC50 amounted to 8.6 nM. Take `CCc1c(C)[nH]c2c(-c3cnn(-c4nccs4)c3)cnn2c1=O` [Example 8, 6-ethyl-5-methyl-3-(1-(thiazol-2-yl)-1H-pyrazol-4-yl)pyrazolo[1,5-a]pyrimidin-7(4H)-one]: the IC50 turned out to be 136 nM. Under `CCc1c(C)[nH]c2c(-c3cnn(-c4cc(C5CC5)ccn4)c3)cnn2c1=O` [Example 9, 3-(1-(4-cyclopropylpyridin-2-yl)-1H-pyrazol-4-yl)-6-ethyl-5-methylpyrazolo[1,5-a]pyrimidin-7(4H)-one] stands 16.6 nM. In the case of `CCc1c(C)[nH]c2c(-c3cnn(-c4cc(C(=O)O)ccn4)c3)cnn2c1=O` [Example 10, 2-(4-(6-ethyl-5-methyl-7-oxo-4,7-dihydropyrazolo[1,5-a]pyrimidin-3-yl)-1H-pyrazol-1-yl)isonicotinic acid], the IC50 amounted to 201 nM. Under `CCc1c(C)[nH]c2c(-c3cnn(-c4cc(CO)ccn4)c3)cnn2c1=O` [Example 11, 6-ethyl-3-(1-(4-(hydroxymethyl)pyridin-2-yl)-1H-pyrazol-4-yl)-5-methylpyrazolo[1,5-a]pyrimidin-7(4H)-one] stands 2.3 nM; under `CCc1c(C)[nH]c2c(-c3cnn(-c4ccc(CO)cn4)c3)cnn2c1=O` [Example 12, 6-ethyl-3-(1-(5-(hydroxymethyl)pyridin-2-yl)-1H-pyrazol-4-yl)-5-methylpyrazolo[1,5-a]pyrimidin-7(4H)-one], 31.3 nM; under `CCc1c(C)[nH]c2c(-c3cnn(-c4cc(Cl)ccn4)c3)cnn2c1=O` [Example 13, 3-(1-(4-chloropyridin-2-yl)-1H-pyrazol-4-yl)-6-ethyl-5-methylpyrazolo[1,5-a]pyrimidin-7(4H)-one], 66.1 nM. Under `CCc1c(C)[nH]c2c(-c3cnn(-c4ncccn4)c3)cnn2c1=O` [Example 14, 6-ethyl-5-methyl-3-(1-(pyrimidin-2-yl)-1H-pyrazol-4-yl)pyrazolo[1,5-a]pyrimidin-7(4H)-one] stands 16.5 nM. For the molecule `CCc1c(C)[nH]c2c(-c3cnn(-c4cc(OC)ccn4)c3)cnn2c1=O` [Example 15, 6-ethyl-3-(1-(4-methoxypyridin-2-yl)-1H-pyrazol-4-yl)-5-methylpyrazolo[1,5-a]pyrimidin-7(4H)-one], the IC50 worked out at 66.1 nM. Regarding `CCc1c(C)[nH]c2c(-c3cnn(-c4cc(N(C)C)ccn4)c3)cnn2c1=O` [Example 16, 3-(1-(4-(dimethylamino)pyridin-2-yl)-1H-pyrazol-4-yl)-6-ethyl-5-methylpyrazolo[1,5-a]pyrimidin-7(4H)-one], the IC50 was found to be 406 nM.

Consider `CCc1c(C)[nH]c2c(-c3cnn(-c4cc(OCCO)ccn4)c3)cnn2c1=O` [Example 17, 6-ethyl-3-(1-(4-(2-hydroxyethoxy)pyridin-2-yl)-1H-pyrazol-4-yl)-5-methylpyrazolo[1,5-a]pyrimidin-7(4H)-one], for which the IC50 was found to be 14.1 nM. Turning to `CCc1c(C)[nH]c2c(-c3cnn(-c4cc(OCCN)ccn4)c3)cnn2c1=O` [Example 18, 3-(1-(4-(2-aminoethoxy)pyridin-2-yl)-1H-pyrazol-4-yl)-6-ethyl-5-methylpyrazolo[1,5-a]pyrimidin-7(4H)-one], the IC50 was 9.8 nM. Next, `Cc1[nH]c2c(-c3cnn(-c4ncccn4)c3)cnn2c(=O)c1C(C)C` [Example 19, 6-isopropyl-5-methyl-3-(1-(pyrimidin-2-yl)-1H-pyrazol-4-yl)pyrazolo[1,5-a]pyrimidin-7(4H)-one]: 5.7 nM. `Cc1[nH]c2c(-c3cnn(-c4ccccn4)c3)cnn2c(=O)c1C(C)C` [Example 20, 6-isopropyl-5-methyl-3-(1-(pyridin-2-yl)-1H-pyrazol-4-yl)pyrazolo[1,5-a]pyrimidin-7(4H)-one]: the IC50 was 8.3 nM. Regarding `Cc1ccc(-n2cc(-c3cnn4c(=O)c(C(C)C)c(C)[nH]c34)cn2)nc1` [Example 21, 6-isopropyl-5-methyl-3-(1-(5-methylpyridin-2-yl)-1H-pyrazol-4-yl)pyrazolo[1,5-a]pyrimidin-7(4H)-one], the IC50 is 9.1 nM. For `Cc1ccnc(-n2cc(-c3cnn4c(=O)c(C(C)C)c(C)[nH]c34)cn2)c1` [Example 22, 6-isopropyl-5-methyl-3-(1-(4-methylpyridin-2-yl)-1H-pyrazol-4-yl)pyrazolo[1,5-a]pyrimidin-7(4H)-one], the IC50 is 23.6 nM.

On to `Cc1ccnc(-n2cc(-c3cnn4c(=O)c(C(C)C)c(C)[nH]c34)cn2)n1` [Example 23, 6-isopropyl-5-methyl-3-(1-(4-methylpyrimidin-2-yl)-1H-pyrazol-4-yl)pyrazolo[1,5-a]pyrimidin-7(4H)-one], for which the IC50 worked out at 54.3 nM. In the case of `Cc1cnc(-n2cc(-c3cnn4c(=O)c(C(C)C)c(C)[nH]c34)cn2)nc1` [Example 24, 6-isopropyl-5-methyl-3-(1-(5-methylpyrimidin-2-yl)-1H-pyrazol-4-yl)pyrazolo[1,5-a]pyrimidin-7(4H)-one], the IC50 amounted to 16.6 nM. On to `Cc1[nH]c2c(-c3cnn(-c4ccc(CO)cn4)c3)cnn2c(=O)c1C(C)C` [Example 25, 3-(1-(5-(hydroxymethyl)pyridin-2-yl)-1H-pyrazol-4-yl)-6-isopropyl-5-methylpyrazolo[1,5-a]pyrimidin-7(4H)-one], for which the 50% inhibitory concentration (IC50) was 6.6 nM. Take `Cc1ccnc(-n2cc(-c3cnn4c(=O)c(C5CC5)c(C)[nH]c34)cn2)c1` [Example 28, 6-cyclopropyl-5-methyl-3-(1-(4-methylpyridin-2-yl)-1H-pyrazol-4-yl)pyrazolo[1,5-a]pyrimidin-7(6H)-one]: the IC50 is 13.4 nM. Under `Cc1[nH]c2c(-c3cnn(-c4ncccn4)c3)cnn2c(=O)c1C1CC1` [Example 29, 6-cyclopropyl-5-methyl-3-(1-(pyrimidin-2-yl)-1H-pyrazol-4-yl)pyrazolo[1,5-a]pyrimidin-7(6H)-one] stands 18.5 nM.

`Cc1ccnc(-n2cc(-c3cnn4c(=O)c(C5CC5)c(C)[nH]c34)cn2)n1` [Example 30, 6-cyclopropyl-5-methyl-3-(1-(4-methylpyrimidin-2-yl)-1H-pyrazol-4-yl)pyrazolo[1,5-a]pyrimidin-7(6H)-one]: the IC50 came out at 4.8 nM. Take `Cc1cnc(-n2cc(-c3cnn4c(=O)c(C5CC5)c(C)[nH]c34)cn2)nc1` [Example 31, 6-cyclopropyl-5-methyl-3-(1-(5-methylpyrimidin-2-yl)-1H-pyrazol-4-yl)pyrazolo[1,5-a]pyrimidin-7(6H)-one]: the IC50 was 48.7 nM. Regarding `Cc1[nH]c2c(-c3cnn(-c4ccc(CO)cn4)c3)cnn2c(=O)c1C1CC1` [Example 32, 6-cyclopropyl-3-(1-(5-(hydroxymethyl)pyridin-2-yl)-1H-pyrazol-4-yl)-5-methylpyrazolo[1,5-a]pyrimidin-7(6H)-one], the IC50 turned out to be 7.9 nM. For `CCc1c(C)[nH]c2c(-c3cnn(C(C)=O)c3)cnn2c1=O` [Example 33, 3-(1-acetyl-1H-pyrazol-4-yl)-6-ethyl-5-methylpyrazolo[1,5-a]pyrimidin-7(4H)-one], the IC50 was 196 nM. As for `CCc1c(C)[nH]c2c(-c3cnn(C(=O)N(C)C)c3)cnn2c1=O` [Example 34, 4-(6-ethyl-5-methyl-7-oxo-4,7-dihydropyrazolo[1,5-a]pyrimidin-3-yl)-N,N-dimethyl-1H-pyrazole-1-carboxamide], the IC50 is 4180 nM.

As to `CCc1c(C)[nH]c2c(-c3cnn(C(=O)C(C)(C)C)c3)cnn2c1=O` [Example 35, 6-ethyl-5-methyl-3-(1-pivaloyl-1H-pyrazol-4-yl)pyrazolo[1,5-a]pyrimidin-7(4H)-one], the IC50 worked out at 543 nM. Regarding `CCc1c(C)[nH]c2c(-c3cnn(C(=O)OC)c3)cnn2c1=O` [Example 36, Methyl 4-(6-ethyl-5-methyl-7-oxo-4,7-dihydropyrazolo[1,5-a]pyrimidin-3-yl)-1H-pyrazole-1-carboxylate], the IC50 is 1000 nM. Under `CCc1[nH]c2c(-c3cnn(-c4ccccn4)c3)cnn2c(=O)c1C` [Example 37, 5-ethyl-6-methyl-3-(1-(pyridin-2-yl)-1H-pyrazol-4-yl)pyrazolo[1,5-a]pyrimidin-7(4H)-one] stands 335 nM. Next, `Cc1c(C(C)C)[nH]c2c(-c3cnn(-c4ccccn4)c3)cnn2c1=O` [Example 38, 5-isopropyl-6-methyl-3-(1-(pyridin-2-yl)-1H-pyrazol-4-yl)pyrazolo[1,5-a]pyrimidin-7(4H)-one]: 1000 nM. As to `Cc1c(C2CC2)[nH]c2c(-c3cnn(-c4ccccn4)c3)cnn2c1=O` [Example 39, 5-cyclopropyl-6-methyl-3-(1-(pyridin-2-yl)-1H-pyrazol-4-yl)pyrazolo[1,5-a]pyrimidin-7(4H)-one], the IC50 turned out to be 624 nM.
